According to patent EP0658547B1, “N-pyrazolyl carbamate derivative, agricultural/horticultural fungicide containing the same as active ingredient and production intermediate thereof” (MITSUBISHI CHEMICAL CORPORATION, priority 1993, dated 1995):

Legend:
[1] = system: Erysiphe graminis; assay: Preventive activity on wheat powdery mildew (foliar application, spray inoculation); format: in vivo; details: 200 ppm active ingredient, wettable powder, foliar application on wheat plants (var. Norin No. 61), 7 to 10 days after inoculation
Description: Test Example 1 Preventive activity on wheat powdery mildow
Wettable powders prepared according to the same manner as that described in Formulation Example 1 were diluted with water to the predetermined concentration and then applied by foliar application on wheat plants (var. Norin No. 61) at the 1 to 2 leaf stage grown in pots of 6 cm in diameter at a ratio of 10 ml per one pot. After the chemical solution was air-dried, a spore suspension obtained from the leaf of wheat infected with Erysiphe graminis was spray-inoculated. After inoculation, the seedling of wheat was allowed to stand at room temperature for 7 to 10 days.
For evaluation, the diseased area ratio of each leaf was measured and the preventive value was calculated from the following equation: The preventive value (%) = (average diseased area ratio in untreated plot) (- (average diseased area ratio in treated plot))/((average diseased area ratio in untreated plot))x 100 [formula]
The test compound No. cited in the Table 2 corresponds to the compound No. of Table 1.

[2] = system: Puccinia recondita; assay: Preventive activity on wheat brown rust (foliar application, spray inoculation); format: in vivo; details: 200 ppm active ingredient, wettable powder, foliar application on wheat plants (var. Norin No. 61), moist chamber 22°C 15 hours, then 7 days
Description: Test Example 2 Preventive activity on wheat brown Wettable powders prepared according to the same manner as that described in Formulation Example 1 were diluted with water to the predetermined concentration and then applied by foliar application on wheat plants (var. Norin No. 61) at the 1 to 2 leaf stage grown in pots of 6 cm in diameter at a ratio of 10 ml per one pot. After the chemical solution was air-dried, a spore suspension obtained by pulverizing the leaf of wheat infected with Puccinia recondita was spray-inoculated. After inoculation, the wheat seedling was maintained in a moist chamber at 22°C for 15 hours and was allowed to stand on a water tank in a green house for 7 days. For evaluation, the diseased area ratio of each leaf was measured and the preventive value was calculated from the following equation: The preventive value (%) = (average diseased area ratio in untreated plot) (- (average diseased area ratio in treated plot))/((average diseased area ratio in untreated plot))x 100 [formula]

## COC(=O)Nc1c(OCc2cc(C)ccc2C)c(C)nn1C [compound No. 48, methyl N-{1,3-dimethyl-4-(2,5-dimethylbenzyloxy)pyrazole-5-yl} carbamate]
[1]
  Preventive value 1 (%): 93%
[2]
  Preventive value 2 (%): 86%

## C#CCN(C(=O)OC)c1c(OCc2cc(C)ccc2C)c(C)nn1C [compound No. 50, methyl N-{1,3-dimethyl-4-(2,5-dimethylbenzyloxy)pyrazole-5-yl}-N-propargyl-carbamate]
[1]
  Preventive value 1 (%): 100%
[2]
  Preventive value 2 (%): 100%

## C#CCN(C(=O)OC)c1c(CON=C(C)c2ccc(C(F)(F)F)cc2)c(C)nn1C [compound No. 169, methyl N-[1,3-dimethyl-4-{(α-methyl-4-trifluoromethyl-benzylidene)aminooxymethylpyrazole-5-yl}]-N-propargyl-carbamate]
[1]
  Preventive value 1 (%): 100%
[2]
  Preventive value 2 (%): 100%
